Experimental data as given in PubChem BioAssay AID1963829 (Molecular Pharmacology Branch, DTP, NCI, 2024).

System: 935938-334-R-J1-PDC complex spheroid viability
Assay: Anticancer human tumor 935938-334-R-J1-PDC patient-derived small intestine adenocarcinoma cell line growth inhibition [POLQ]
Details: for IC50: curve of first compound; for viability, T/C: stronger effect = lower value
In short: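 Complex spheroid viability model combining PDC tumour cells with endothelial (HUVEC) and MSC stromal cells. Novobiocin, ART-558 or RP6685 were tested singly and in combination with standard and investigational anticancer drugs. Each was titrated in half-log steps from near clinical Cmax, or from 10 microM where Cmax was unknown.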

[1] = second compound 0.0316 µM, first compound 0.0316 µM
[2] = second compound 0.0316 µM, first compound 0.1 µM
[3] = second compound 0.0316 µM, first compound 0.316 µM
[4] = second compound 0.0316 µM, first compound 1 µM
[5] = second compound 0.0316 µM, first compound 3.16 µM
[6] = second compound 0.0316 µM, first compound 10 µM
[7] = second compound 0.1 µM, first compound 0.0316 µM
[8] = second compound 0.1 µM, first compound 0.1 µM
[9] = second compound 0.1 µM, first compound 0.316 µM
[10] = second compound 0.1 µM, first compound 1 µM
[11] = second compound 0.1 µM, first compound 3.16 µM
[12] = second compound 0.1 µM, first compound 10 µM
[13] = second compound 0.316 µM, first compound 0.0316 µM
[14] = second compound 0.316 µM, first compound 0.1 µM
[15] = second compound 0.316 µM, first compound 0.316 µM
[16] = second compound 0.316 µM, first compound 1 µM
[17] = second compound 0.316 µM, first compound 3.16 µM
[18] = second compound 0.316 µM, first compound 10 µM
[19] = second compound 1 µM, first compound 0.0316 µM
[20] = second compound 1 µM, first compound 0.1 µM
[21] = second compound 1 µM, first compound 0.316 µM
[22] = second compound 1 µM, first compound 1 µM
[23] = second compound 1 µM, first compound 3.16 µM
[24] = second compound 1 µM, first compound 10 µM
[25] = second compound 3.16 µM, first compound 0.0316 µM
[26] = second compound 3.16 µM, first compound 0.1 µM
[27] = second compound 3.16 µM, first compound 0.316 µM
[28] = second compound 3.16 µM, first compound 1 µM
[29] = second compound 3.16 µM, first compound 3.16 µM
[30] = second compound 3.16 µM, first compound 10 µM
[31] = second compound 10 µM, first compound 0.0316 µM
[32] = second compound 10 µM, first compound 0.1 µM
[33] = second compound 10 µM, first compound 0.316 µM
[34] = second compound 10 µM, first compound 1 µM
[35] = second compound 10 µM, first compound 3.16 µM
[36] = second compound 10 µM, first compound 10 µM
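Also: spheroids exposed to drugs for seven days before viability read.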
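For viability, T/C in this document: 100% = DMSO vehicle control wells.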

Compound `C#Cc1c(F)ccc2cc(O)cc(-c3ncc4c(N5CC6CCC(C5)N6)nc(OCC56CCCN5CC(F)C6)nc4c3F)c12` (centres undefined) + COC1C(OC(N)=O)C(O)C(Oc2ccc3c(O)c(NC(=O)c4ccc(O)c(CC=C(C)C)c4)c(=O)oc3c2C)OC1(C)C has an IC50 (second compound 0.0316 µM) of 0.848 µM, an IC50 (second compound 0.1 µM) of 5.68 µM and an IC50 (second compound 0.316 µM) of 1.84 µM. For the same compound, the IC50 (second compound 1 µM) was 2.62 µM, the IC50 (second compound 3.16 µM) was 6.23 µM and the IC50 (second compound 10 µM) was 2.92 µM. It also gave a viability, T/C [1] of 84.6%, a viability, T/C [2] of 100% and a viability, T/C [3] of 70.6%. The viability, T/C [4] was 47.5%, the viability, T/C [5] was 47.1% and the viability, T/C [6] was 29.9%. For the same compound, the viability, T/C [7] was 76.3%, the viability, T/C [8] was 93.5% and the viability, T/C [9] was 111%. It also gave a viability, T/C [10] of 73.1%, a viability, T/C [11] of 61.5% and a viability, T/C [12] of 41%. It also gave a viability, T/C [13] of 106%, a viability, T/C [14] of 79.6% and a viability, T/C [15] of 121%. The viability, T/C [16] was 52%, the viability, T/C [17] was 62.6% and the viability, T/C [18] was 33.8%. It also gave a viability, T/C [19] of 92.8%, a viability, T/C [20] of 81.2% and a viability, T/C [21] of 75.8%. For the same compound, the viability, T/C [22] was 65%, the viability, T/C [23] was 42% and the viability, T/C [24] was 44.1%. For the same compound, the viability, T/C [25] was 96.7%, the viability, T/C [26] was 72% and the viability, T/C [27] was 75.9%. For the same compound, the viability, T/C [28] was 86.4%, the viability, T/C [29] was 43.1% and the viability, T/C [30] was 48.6%. The viability, T/C [31] was 65.6%, the viability, T/C [32] was 97.9% and the viability, T/C [33] was 77.4%. It also gave a viability, T/C [34] of 57.2%, a viability, T/C [35] of 54.8% and a viability, T/C [36] of 43.9%.
`O=C(Nc1ccc(O)c(NS(=O)(=O)c2ccc(F)cc2)c1)c1ccc(-c2ccccc2)cc1` + Cc1cccc(N(C)C(=O)C2C(O)CCN2c2nc(C)cc(C(F)(F)F)c2C#N)c1 was tested, and the IC50 (second compound 0.0316 µM) was over 10 µM, the IC50 (second compound 0.1 µM) was over 10 µM and the IC50 (second compound 0.316 µM) was over 10 µM. For the same compound, the IC50 (second compound 1 µM) was over 10 µM, the IC50 (second compound 3.16 µM) was over 10 µM and the IC50 (second compound 10 µM) was 8.04 µM. It also gave a viability, T/C [1] of 116%, a viability, T/C [2] of 91% and a viability, T/C [3] of 99.3%. The viability, T/C [4] was 95%, the viability, T/C [5] was 89.3% and the viability, T/C [6] was 64.8%. The viability, T/C [7] was 83%, the viability, T/C [8] was 73.9% and the viability, T/C [9] was 76.1%. For the same compound, the viability, T/C [10] was 109%, the viability, T/C [11] was 98.1% and the viability, T/C [12] was 65.9%. It also gave a viability, T/C [13] of 85.9%, a viability, T/C [14] of 93.9% and a viability, T/C [15] of 71.4%. It also gave a viability, T/C [16] of 99.2%, a viability, T/C [17] of 123% and a viability, T/C [18] of 65.1%. For the same compound, the viability, T/C [19] was 91.3%, the viability, T/C [20] was 80.3% and the viability, T/C [21] was 100%. The viability, T/C [22] was 92.2%, the viability, T/C [23] was 72.8% and the viability, T/C [24] was 56.2%. The viability, T/C [25] was 93.2%, the viability, T/C [26] was 114% and the viability, T/C [27] was 95.3%. The viability, T/C [28] was 88.6%, the viability, T/C [29] was 98.6% and the viability, T/C [30] was 61%. The viability, T/C [31] was 92.4%, the viability, T/C [32] was 106% and the viability, T/C [33] was 101%. For the same compound, the viability, T/C [34] was 100%, the viability, T/C [35] was 71.1% and the viability, T/C [36] was 45.1%.
